The structures appear in SMILES notation.

IC50 data for 27 compounds are collected here from patent US8129417B2, “Substituted octahydrocyclopenta[C]pyrrol-4-amines as calcium channel blockers” (Abbott Laboratories, priority 2008, dated 2012).

Sequence of human Cav2.2 (Q00975 whole entry): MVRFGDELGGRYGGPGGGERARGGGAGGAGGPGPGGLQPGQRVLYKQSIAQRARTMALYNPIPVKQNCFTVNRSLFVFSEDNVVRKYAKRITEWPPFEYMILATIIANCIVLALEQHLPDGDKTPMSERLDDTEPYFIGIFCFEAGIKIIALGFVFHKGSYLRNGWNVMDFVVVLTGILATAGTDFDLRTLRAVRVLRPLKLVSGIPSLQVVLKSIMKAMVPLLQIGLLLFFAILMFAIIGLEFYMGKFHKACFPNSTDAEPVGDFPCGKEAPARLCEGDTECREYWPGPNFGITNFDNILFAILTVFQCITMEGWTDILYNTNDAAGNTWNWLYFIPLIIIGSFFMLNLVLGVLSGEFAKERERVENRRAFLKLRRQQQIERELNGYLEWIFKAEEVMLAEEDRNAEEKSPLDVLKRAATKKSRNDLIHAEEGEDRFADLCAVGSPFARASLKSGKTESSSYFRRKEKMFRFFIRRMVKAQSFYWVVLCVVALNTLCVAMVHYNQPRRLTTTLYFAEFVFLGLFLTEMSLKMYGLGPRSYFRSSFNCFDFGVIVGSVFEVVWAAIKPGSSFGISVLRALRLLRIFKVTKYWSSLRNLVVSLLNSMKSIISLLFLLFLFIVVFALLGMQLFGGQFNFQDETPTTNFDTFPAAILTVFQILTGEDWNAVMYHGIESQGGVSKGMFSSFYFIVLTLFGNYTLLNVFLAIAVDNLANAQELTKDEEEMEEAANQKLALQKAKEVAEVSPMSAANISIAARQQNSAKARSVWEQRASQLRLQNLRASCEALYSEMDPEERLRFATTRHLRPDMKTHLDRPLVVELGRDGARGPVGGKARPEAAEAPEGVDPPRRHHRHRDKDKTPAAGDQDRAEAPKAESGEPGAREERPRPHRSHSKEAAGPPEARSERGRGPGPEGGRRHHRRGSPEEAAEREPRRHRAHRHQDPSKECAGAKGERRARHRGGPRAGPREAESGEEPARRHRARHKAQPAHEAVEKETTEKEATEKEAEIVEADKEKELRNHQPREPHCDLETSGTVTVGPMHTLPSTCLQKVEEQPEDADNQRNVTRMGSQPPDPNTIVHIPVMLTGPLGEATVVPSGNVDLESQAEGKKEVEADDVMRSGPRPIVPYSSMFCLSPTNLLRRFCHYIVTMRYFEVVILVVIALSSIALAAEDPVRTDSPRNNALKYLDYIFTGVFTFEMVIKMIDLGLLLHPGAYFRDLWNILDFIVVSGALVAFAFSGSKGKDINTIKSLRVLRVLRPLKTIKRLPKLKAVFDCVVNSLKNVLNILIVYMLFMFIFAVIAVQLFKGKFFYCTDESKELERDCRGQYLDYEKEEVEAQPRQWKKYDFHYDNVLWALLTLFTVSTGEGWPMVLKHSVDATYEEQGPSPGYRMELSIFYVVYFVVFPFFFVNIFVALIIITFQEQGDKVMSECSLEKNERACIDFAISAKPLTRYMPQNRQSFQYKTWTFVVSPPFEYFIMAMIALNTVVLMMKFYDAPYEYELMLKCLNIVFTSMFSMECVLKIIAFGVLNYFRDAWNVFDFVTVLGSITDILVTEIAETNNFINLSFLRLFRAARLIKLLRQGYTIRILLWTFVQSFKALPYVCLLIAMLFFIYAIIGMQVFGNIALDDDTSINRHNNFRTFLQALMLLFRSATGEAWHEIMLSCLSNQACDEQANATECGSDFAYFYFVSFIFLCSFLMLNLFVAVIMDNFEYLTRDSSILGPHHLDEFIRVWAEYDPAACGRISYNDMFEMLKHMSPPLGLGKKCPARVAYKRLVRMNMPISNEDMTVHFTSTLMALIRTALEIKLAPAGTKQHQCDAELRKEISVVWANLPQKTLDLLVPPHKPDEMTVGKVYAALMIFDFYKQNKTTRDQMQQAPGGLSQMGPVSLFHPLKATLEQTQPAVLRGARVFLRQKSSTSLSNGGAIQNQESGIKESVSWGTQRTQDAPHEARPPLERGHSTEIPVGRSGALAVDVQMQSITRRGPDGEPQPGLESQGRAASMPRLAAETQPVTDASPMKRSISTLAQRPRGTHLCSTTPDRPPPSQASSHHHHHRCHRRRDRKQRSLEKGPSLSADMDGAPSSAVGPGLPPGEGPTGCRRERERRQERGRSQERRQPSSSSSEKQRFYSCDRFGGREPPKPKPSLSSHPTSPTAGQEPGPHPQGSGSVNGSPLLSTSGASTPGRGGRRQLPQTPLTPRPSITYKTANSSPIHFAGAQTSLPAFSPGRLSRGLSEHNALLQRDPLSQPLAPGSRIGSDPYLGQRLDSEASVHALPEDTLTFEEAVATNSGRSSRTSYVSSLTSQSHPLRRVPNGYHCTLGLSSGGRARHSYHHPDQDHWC
Sequence of human Cav2.2 (P54289 25-946 partner limits assumed): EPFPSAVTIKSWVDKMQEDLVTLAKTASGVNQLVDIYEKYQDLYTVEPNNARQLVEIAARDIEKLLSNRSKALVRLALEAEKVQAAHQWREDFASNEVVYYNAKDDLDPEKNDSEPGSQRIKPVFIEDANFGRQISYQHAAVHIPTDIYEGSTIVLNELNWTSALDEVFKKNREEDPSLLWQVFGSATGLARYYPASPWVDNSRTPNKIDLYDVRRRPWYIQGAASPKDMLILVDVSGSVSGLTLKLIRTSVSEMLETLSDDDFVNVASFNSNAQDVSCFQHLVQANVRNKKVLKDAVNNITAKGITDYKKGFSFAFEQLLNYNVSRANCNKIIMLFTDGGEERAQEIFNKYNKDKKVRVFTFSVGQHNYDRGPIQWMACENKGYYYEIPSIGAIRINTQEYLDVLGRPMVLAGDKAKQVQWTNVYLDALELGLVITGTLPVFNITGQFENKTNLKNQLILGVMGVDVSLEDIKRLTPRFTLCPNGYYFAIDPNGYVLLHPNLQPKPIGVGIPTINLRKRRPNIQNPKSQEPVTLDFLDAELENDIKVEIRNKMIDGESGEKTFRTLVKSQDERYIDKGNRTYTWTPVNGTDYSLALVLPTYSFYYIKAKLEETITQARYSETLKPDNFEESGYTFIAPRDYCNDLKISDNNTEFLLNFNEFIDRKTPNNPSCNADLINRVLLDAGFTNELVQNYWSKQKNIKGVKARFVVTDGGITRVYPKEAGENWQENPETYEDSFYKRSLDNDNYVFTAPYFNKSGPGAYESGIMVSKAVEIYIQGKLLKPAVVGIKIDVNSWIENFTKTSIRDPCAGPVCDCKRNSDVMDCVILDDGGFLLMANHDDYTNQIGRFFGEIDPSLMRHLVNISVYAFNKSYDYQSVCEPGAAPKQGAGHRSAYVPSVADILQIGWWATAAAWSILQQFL
Sequence of human Cav2.2 (P54289 947-1103 partner limits assumed): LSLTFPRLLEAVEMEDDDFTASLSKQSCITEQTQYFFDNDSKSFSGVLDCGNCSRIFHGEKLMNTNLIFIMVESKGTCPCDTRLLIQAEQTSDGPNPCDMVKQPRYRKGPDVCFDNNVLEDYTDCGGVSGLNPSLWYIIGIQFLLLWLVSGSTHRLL
Sequence of human Cav2.2 (P54284 whole entry partner): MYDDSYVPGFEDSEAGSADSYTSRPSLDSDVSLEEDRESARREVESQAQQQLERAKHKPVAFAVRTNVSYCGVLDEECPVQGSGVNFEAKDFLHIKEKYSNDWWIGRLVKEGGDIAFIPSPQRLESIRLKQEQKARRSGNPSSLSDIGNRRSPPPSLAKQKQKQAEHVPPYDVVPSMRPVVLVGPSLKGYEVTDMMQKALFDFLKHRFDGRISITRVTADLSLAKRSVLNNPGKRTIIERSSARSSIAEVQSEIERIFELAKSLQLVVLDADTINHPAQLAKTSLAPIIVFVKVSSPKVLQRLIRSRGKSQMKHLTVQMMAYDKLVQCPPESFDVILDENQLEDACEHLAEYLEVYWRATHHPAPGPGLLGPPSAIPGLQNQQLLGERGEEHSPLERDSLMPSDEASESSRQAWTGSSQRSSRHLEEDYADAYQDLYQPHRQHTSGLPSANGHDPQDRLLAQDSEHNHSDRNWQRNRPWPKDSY

The assay has as its target human Cav2.2 (Homo sapiens, UniProt Q00975). The assay can be described thus: Assessment of calcium channel activity using FLIPR (Ca2+ influx in IMR32 cells). It counts as cell-based. Particulars: 60 minute pre-incubation with compound, 2 μM nifedipine, depolarized with 80 mM KCl. The procedure, abridged:
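IC50 came from sigmoidal non-linear regression of percent inhibition, relative to uninhibited activity, across compound concentrations. Calcium influx was measured by FLIPR in IMR32 cells plated at 1-1.2×10^5 cells/well and cultured 48 h at 37 °C.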
The IC50 is the midpoint of a concentration-inhibition curve. With `CC(C)(C)C[C@H](NC(=O)OC(C)(C)C)C(=O)N[C@H]1CC[C@@H]2CN(Cc3ccccc3)C[C@@H]21` [Example 226, tert-butyl(S)-1-((3aR,4S,6aS)-2-benzyloctahydrocyclopenta[c]pyrrol-4-ylamino)-4,4-dimethyl-1-oxopentan-2-ylcarbamate], the IC50 was determined as 4060 nM.

In the case of `CCCC[C@@H](C(=O)N[C@H]1CC[C@@H]2CN(Cc3ccccc3)C[C@@H]21)N(C)C(=O)OC(C)(C)C` [Example 227, tert-butyl(S)-1-((3aR,4S,6aS)-2-benzyloctahydrocyclopenta[c]pyrrol-4-ylamino)-1-oxohexan-2-yl(methyl)carbamate], the IC50 came out at 3170 nM. Consider `O=C(N[C@H]1CC[C@@H]2CN(Cc3ccccc3)C[C@@H]21)C(c1ccc(F)cc1)c1ccc(F)cc1` [Example 228, N-[(3aR,4S,6aS)-2-benzyloctahydrocyclopenta[c]pyrrol-4-yl]-2,2-bis(4-fluorophenyl)acetamide], for which the IC50 turned out to be 2090 nM. The result for `CC(C)[C@@H](C(=O)N[C@@H]1CC[C@H]2CN(Cc3ccccc3)C[C@H]21)N(C)C(=O)OC(C)(C)C` [Example 232, tert-butyl(S)-1-((3aS,4R,6aR)-2-benzyloctahydrocyclopenta[c]pyrrol-4-ylamino)-3-methyl-1-oxobutan-2-yl(methyl)carbamate] reads 3600 nM; that for `CC(C)(C)OC(=O)N[C@H](C(=O)N[C@@H]1CC[C@H]2CN(Cc3ccccc3)C[C@H]21)C(C)(C)C` [Example 234, tert-butyl(S)-1-((3aS,4R,6aR)-2-benzyloctahydrocyclopenta[c]pyrrol-4-ylamino)-3,3-dimethyl-1-oxobutan-2-ylcarbamate], 7400 nM; that for `CC(C)C(C(=O)N[C@@H]1CC[C@H]2CN(Cc3ccccc3)C[C@H]21)C(C)C` [Example 235, N-[(3aS,4R,6aR)-2-benzyloctahydrocyclopenta[c]pyrrol-4-yl]-2-isopropyl-3-methylbutanamide], 14200 nM. Under `O=C(N[C@H]1CC[C@H]2CN(Cc3cccc(C(F)(F)F)c3)C[C@H]21)C(O)C1CCCCC1` (stereo partly drawn) [Example 237, 2-cyclohexyl-2-hydroxy-N-{(3aS,4S,6aR)-2-[3-(trifluoromethyl)benzyl]octahydrocyclopenta[c]pyrrol-4-yl}acetamide] stands 1880 nM; under `CCC[C@@H](C(=O)N[C@H]1CC[C@H]2CN(Cc3ccccc3)C[C@H]21)N(C)C(=O)OC(C)(C)C` [Example 238, tert-butyl(S)-1-((3aS,4S,6aR)-2-benzyloctahydrocyclopenta[c]pyrrol-4-ylamino)-1-oxopentan-2-yl(methyl)carbamate], 5730 nM.

In the case of `CCC[C@@H](C(=O)N[C@@H]1CC[C@@H]2CN(Cc3ccccc3)C[C@@H]21)N(C)C(=O)OC(C)(C)C` [Example 240, tert-butyl(S)-1-((3aR,4R,6aS)-2-benzyloctahydrocyclopenta[c]pyrrol-4-ylamino)-1-oxopentan-2-yl(methyl)carbamate], the IC50 is 2670 nM. The result for `CC(C)C[C@H](NS(C)(=O)=O)C(=O)N[C@H]1CC[C@@H]2CN(Cc3ccccc3)C[C@@H]21` [Example 242, N^1-[(3aR,4S,6aS)-2-benzyloctahydrocyclopenta[c]pyrrol-4-yl]-N^2-(methylsulfonyl)-L-leucinamide] reads 7920 nM; that for `CC(C)C[C@H](NCC(C)(C)C)C(=O)N[C@@H]1CC[C@H]2CN(Cc3ccccc3)C[C@H]21` [Example 245, N^1-[(3aS,4R,6aR)-2-benzyloctahydrocyclopenta[c]pyrrol-4-yl]-N^2-neopentyl-L-leucinamide], 8080 nM; that for `CN(C(=O)OC(C)(C)C)[C@@H](CC(C)(C)C)C(=O)N[C@H]1CC[C@@H]2CN(Cc3ccccc3)C[C@@H]21` [Example 247, tert-butyl(S)-1-((3aR,4S,6aS)-2-benzyloctahydrocyclopenta[c]pyrrol-4-ylamino)-4,4-dimethyl-1-oxopentan-2-yl(methyl)carbamate], 3620 nM.

Turning to `CN(C(=O)OC(C)(C)C)[C@@H](CC(C)(C)C)C(=O)N[C@@H]1CC[C@H]2CN(Cc3ccccc3)C[C@H]21` [Example 248, tert-butyl(S)-1-((3aS,4R,6aR)-2-benzyloctahydrocyclopenta[c]pyrrol-4-ylamino)-4,4-dimethyl-1-oxopentan-2-yl(methyl)carbamate], the IC50 is 1670 nM.

For the compound `CC(C)C[C@H](NCC(C)(C)C)C(=O)N[C@H]1CC[C@@H]2CN(S(=O)(=O)c3cccc(C(F)(F)F)c3)C[C@@H]21` [Example 252, N^2-neopentyl-N^1-((3aR,4S,6aS)-2-{[3-(trifluoromethyl)phenyl]sulfonyl}octahydrocyclopenta[c]pyrrol-4-yl)-L-leucinamide], the IC50 came out at 640 nM. For the compound `CCC[C@H](NCC(C)(C)C)C(=O)N[C@H]1CC[C@@H]2CN(S(=O)(=O)c3cccc(C(F)(F)F)c3)C[C@@H]21` [Example 253, N^2-neopentyl-N^1-((3aR,4S,6aS)-2-{[3-(trifluoromethyl)phenyl]sulfonyl}octahydrocyclopenta[c]pyrrol-4-yl)-L-norvalinamide], the IC50 amounted to 360 nM. The result for `CC(C)C[C@H](NCC(C)(C)C)C(=O)N[C@@H]1CC[C@H]2CN(S(=O)(=O)c3cccc(C(F)(F)F)c3)C[C@H]21` [Example 254, N^2-neopentyl-N^1-((3aS,4R,6aR)-2-{[3-(trifluoromethyl)phenyl]sulfonyl}octahydrocyclopenta[c]pyrrol-4-yl)-L-leucinamide] reads 720 nM; that for `CCC[C@H](NCC(C)(C)C)C(=O)N[C@@H]1CC[C@H]2CN(S(=O)(=O)c3cccc(C(F)(F)F)c3)C[C@H]21` [Example 255, N^2-neopentyl-N^1-((3aS,4R,6aR)-2-{[3-(trifluoromethyl)phenyl]sulfonyl}octahydrocyclopenta[c]pyrrol-4-yl)-L-norvalinamide], 550 nM. In the case of `CC(C)C[C@H](NCC(C)(C)C)C(=O)N[C@H]1CC[C@@H]2CN(S(=O)(=O)c3ccc(C(F)(F)F)cc3)C[C@@H]21` [Example 256, N^2-neopentyl-N^1-((3aR,4S,6aS)-2-{[4-(trifluoromethyl)phenyl]sulfonyl}octahydrocyclopenta[c]pyrrol-4-yl)-L-leucinamide], the IC50 came to 1380 nM. The result for `CN(C(=O)OC(C)(C)C)C(Cc1ccccc1)C(=O)NC1CCC2CN(S(=O)(=O)c3ccc(C(F)(F)F)cc3)CC21` [Example 258, N-(tert-butoxycarbonyl)-N-methyl-N-((3aR,4S,6aS)-2-{[4-(trifluoromethyl)phenyl]sulfonyl}octahydrocyclopenta[c]pyrrol-4-yl)-1-phenylalaninamide] reads 850 nM; that for `CCC[C@@H](C(=O)N[C@H]1CC[C@@H]2CN(S(=O)(=O)c3ccc(C(F)(F)F)cc3)C[C@@H]21)N(C)C(=O)OC(C)(C)C` [Example 259, tert-butyl methyl((S)-1-oxo-1-((3aR,4S,6aS)-2-(4-(trifluoromethyl)phenylsulfonyl)octahydrocyclopenta[c]pyrrol-4-ylamino)pentan-2-yl)carbamate], 1140 nM; that for `CC(C)(C)C[C@H](NC(=O)OC(C)(C)C)C(=O)N[C@H]1CC[C@@H]2CN(c3ccc(C(F)(F)F)cn3)C[C@@H]21` [Example 262, tert-butyl(S)-4,4-dimethyl-1-oxo-1-((3aR,4S,6aS)-2-(5-(trifluoromethyl)pyridin-2-yl)octahydrocyclopenta[c]pyrrol-4-ylamino)pentan-2-ylcarbamate], 1800 nM. The result for `CC(C)(C)C[C@H](NC(=O)OC(C)(C)C)C(=O)N[C@H]1CC[C@@H]2CN(c3cccc(C(F)(F)F)n3)C[C@@H]21` [Example 264, tert-butyl(S)-4,4-dimethyl-1-oxo-1-((3aR,4S,6aS)-2-(6-(trifluoromethyl)pyridin-2-yl)octahydrocyclopenta[c]pyrrol-4-ylamino)pentan-2-ylcarbamate] reads 280 nM; that for `CC(C)(C)C[C@H](NC(=O)OC(C)(C)C)C(=O)N[C@H]1CC[C@@H]2CN(c3cnc(S(C)(=O)=O)nc3)C[C@@H]21` [Example 265, tert-butyl(S)-4,4-dimethyl-1-((3aR,4S,6aS)-2-(2-(methylsulfonyl)pyrimidin-5-yl)octahydrocyclopenta[c]pyrrol-4-ylamino)-1-oxopentan-2-ylcarbamate], 2620 nM. For the compound `CC(C)(C)OC(=O)N1CCC[C@H]1C(=O)N[C@@H]1CC[C@H]2CN(S(=O)(=O)c3cccc(C(F)(F)F)c3)C[C@H]21` [Example 266, (S)-tert-butyl 2-((3aS,4R,6aR)-2-(3-(trifluoromethyl)phenylsulfonyl)octahydrocyclopenta[c]pyrrol-4-ylcarbamoyl)pyrrolidine-1-carboxylate], the half-inhibitory concentration (IC50) turned out to be 870 nM.

On to `CC(C)(C)OC(=O)N1CCCC[C@H]1C(=O)N[C@@H]1CC[C@H]2CN(S(=O)(=O)c3cccc(C(F)(F)F)c3)C[C@H]21` [Example 268, tert-butyl(2S)-2-{[((3aS,4R,6aR)-2-{[3-(trifluoromethyl)phenyl]sulfonyl}octahydrocyclopenta[c]pyrrol-4-yl)amino]carbonyl}piperidine-1-carboxylate], for which the IC50 amounted to 730 nM. Consider `CN(C(=O)OC(C)(C)C)C(Cc1ccccc1)C(=O)NC1CCC2CN(S(=O)(=O)c3cccc(C(F)(F)F)c3)CC21` [Example 270, N-(tert-butoxycarbonyl)-N-methyl-N-((3aR,4S,6aS)-2-{[3-(trifluoromethyl)phenyl]sulfonyl}octahydrocyclopenta[c]pyrrol-4-yl)-L-phenylalaninamide], for which the IC50 turned out to be 770 nM. The result for `CC(C)(C)OC(=O)N1CCC[C@H]1C(=O)N[C@H]1CC[C@@H]2CN(S(=O)(=O)c3cccc(C(F)(F)F)c3)C[C@@H]21` [Example 271, (S)-tert-butyl 2-((3aR,4S,6aS)-2-(3-(trifluoromethyl)phenylsulfonyl)octahydrocyclopenta[c]pyrrol-4-ylcarbamoyl)pyrrolidine-1-carboxylate] reads 3410 nM.
